Measurements taken from patent US20220017863A1, “SIRT2-ABLATED CHIMERIC T CELLS” (H. Lee Moffitt Cancer Center and Research Institute, Inc., priority 2019, published 2022).
Entries after “also recorded” stand apart in the source; their conditions may differ.

Assays:
Type in all cases: cell-based
[1] = test system: human CD3+ T cells; test: IFN-γ ELISPOT on human CD3+ T cells from healthy donors; settings: inhibitor vs vehicle, 48 hr
[2] = biological target: T1, Sirt2 deacetylase activity (Homo sapiens, UniProt Q8IXJ6); test: Western blot of acetylated α-tubulin in human CD3+ enriched T cells; settings: 48 hr
T1 construct: endogenous in cells; host or cells: human CD3+ T cells enriched from PBMC of healthy donors
T1 sequence (Q8IXJ6 1-389): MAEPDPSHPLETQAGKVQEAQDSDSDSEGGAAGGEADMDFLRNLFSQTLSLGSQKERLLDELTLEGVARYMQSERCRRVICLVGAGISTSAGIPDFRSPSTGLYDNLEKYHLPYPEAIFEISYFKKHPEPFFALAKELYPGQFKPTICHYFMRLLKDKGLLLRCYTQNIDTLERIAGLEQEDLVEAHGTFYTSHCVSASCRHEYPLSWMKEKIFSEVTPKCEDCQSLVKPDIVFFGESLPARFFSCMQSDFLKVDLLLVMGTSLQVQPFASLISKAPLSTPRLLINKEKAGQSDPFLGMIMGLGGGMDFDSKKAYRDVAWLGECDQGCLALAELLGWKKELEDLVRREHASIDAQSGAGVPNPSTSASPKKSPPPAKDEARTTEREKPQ
Method: Human peripheral blood mononuclear cells (PBMC) were obtained from healthy donors by density gradient centrifugation using Ficoll-Paque™ PLUS Media (GE Healthcare). CD3^+ lymphocytes were negatively enriched using human Pan T cell isolation Kit™ (Miltenyi Biotec).
Whole cell lysates were prepared using lysis buffer (Pierce RIPA buffer, ThermoFisher Scientific) supplemented with cOmplete™ Protease Inhibitor Cocktail and PhosSTOP Phosphatase Inhibitor (Roche Applied Science).
Cell lysates (20 ug) or IP samples were loaded onto 10% SDS-PAGE and separated by electrophoresis followed by semi-dry transfer into polyvinylidene fluoride membranes (Immun-Blot PVDF membrane, Bio-Rad) using Trans-Blot Turbo transfer system (Bio-Rad). After transfer, the membranes were blocked at room temperature with Tris-buffered saline (TBS) containing 0.05% Tween-20 (TBST) and 5% (w/v) milk for 1 h and then incubated overnight at 4° C. with a specific primary antibody (indicated below). […] After washing 3 times with TBST, bound antibodies were detected by chemiluminescence using the Pierce™ ECL Western Blotting Substrate and the Super Signal West Femto Maximum Sensitivity Substrate kits (ThermoFisher Scientific). […]

[3] = test system: human TILs; test: IFN-γ ELISPOT on human TILs from NSCLC patients; settings: AGK2 vs vehicle, 5 patient samples

N#C/C(=C/c1ccc(-c2cc(Cl)ccc2Cl)o1)C(=O)Nc1cccc2ncccc12 [AGK2]
IFN-γ production (effector function) [1]: increases; also recorded: augments | capacity to block Sirt2 deacetylase activity, monitored by acetylated α-tubulin levels [2]: confirmed; also recorded: validated | IFN-γ production (effector function) [3]: increases
